Experiments:
ICR mice = assay: Pulmonary toxicity (pulmonary fibrosis) in mice, intratracheal instillation; assay type: in vivo; conditions: 16 μg/50 μl/mouse intratracheally, sacrificed 4 weeks after instillation; for Grade: total score of pulmonary fibrosis/total number of samples: score 0-6 points
Experimental: Male 15 weeks old ICR mice were used. Sixteen μg/50 μl/mouse of each test sample was intratracheally instilled. The mice were sacrificed 4 weeks after instillation to examine the incidence and grade of pulmonary fibrosis. The evaluation was made by comparing the number of administered mice suffering from pulmonary fibrosis and the grade of the disease.
(§1) In Tables 4A and 4B, the grade was numerically rated as follows:
(§2) 1 point: Accumulation of exudate in pulmonary alveoli and fibrosis-like change in alveolar septum.
(§3) 2 points: Fibrosis in several areas.
(§4) 4 points: Scattered fibrosis.
(§5) 6 points: Fibrosis in more than two-thirds of the total area.

[1] = test system: Mycobacterium smegmatis ATCC 607; assay: Antimicrobial activity, agar plate-cylinder method; assay type: cell-based; conditions: Cu-free form; bleomycin A2 (Cu-free form) standard assumed 1,000 mcg/mg
Experimental: (§6) The activity was assayed against the above test microorganisms by the method of agar plate-cylinder, assuming the potency of bleomycin A2 (Cu-free form), used as standard, to be 1,000 mcg/mg.

Bacillus subtilis = assay: Antimicrobial activity, agar plate-cylinder method; assay type: cell-based; conditions: Cu-free form; bleomycin A2 (Cu-free form) standard assumed 1,000 mcg/mg
Experimental: (1) Antimicrobial activity against Mycobacterium smegmatis ATCC 697 and Bacillus subtilis.
as §6

Hela S3 cells = assay: Growth inhibitory activity against Hela S3 cells; assay type: cell-based; conditions: Cu-free form; Hela S3, 3 days incubation with compound
Experimental: The percentage growth inhibition was calculated using the equation: […] wherein A is the ultimate number of cells on the third day from the addition of a test sample, B is the ultimate number of cells in the control (without the addition of test sample), and C is the number of cells on the day of addition of the test sample.

ICR strain mice = assay: Pulmonary toxicity (pulmonary fibrosis) in mice, intraperitoneal injection; assay type: in vivo; conditions: 5 mg/kg i.p. once a day for 10 days; for Grade of pulmonary fibrosis, % / Incidence of pulmonary fibrosis, % / Incidence: number of mice suffering from pulmonary fibrosis / Grade: total score of pulmonary fibrosis/total number of test animal: autopsy after 5 weeks; for Incidence: number of mice suffering from pulmonary fibrosis: affected/total mice; for Grade: total score of pulmonary fibrosis/total number of test animal: score 0-6 points; for Grade of pulmonary fibrosis, Ratio / Incidence of pulmonary fibrosis, Ratio: reference of the ratio not stated
Experimental: (3) Pulmonary toxicity (pulmonary fibrosis) in mice.
ICR strain mice (male; 15 weeks old; 9 mice per group) were used. Each mouse was administered with a daily dose of 5 mg/kg of the test sample by intraperitoneal injection, once a day, for 10 consecutive days. After completion of the predetermined administration, the mice were kept for 5 weeks under observation, then slaughtered, and autopsied to examine the incidence and grade of pulmonary fibrosis. The evaluation was made by comparing the number of administered mice suffering from pulmonary fibrosis and the grade of the disease.
as §1, §2, §3, §4, §5

| Structure (SMILES) | Grade of pulmonary fibrosis, % (ICR mice) | Incidence of pulmonary fibrosis, % (ICR mice) | Incidence: number of mice with pulmonary fibrosis/number of mice (ICR mice) | Grade: total score of pulmonary fibrosis/total number of samples (ICR mice) | Antimicrobial potency of Cu--free compound, against Mycobacterium smegmatis ATCC 607 [1] | Antimicrobial potency of Cu--free compound, against Bacillus subtilis (Bacillus subtilis) | 50% growth inhibition concentration (ID50) of Cu--free compound against cultured Hela cell (Hela S3 cells) | Grade of pulmonary fibrosis, % (ICR strain mice) | Incidence of pulmonary fibrosis, % (ICR strain mice) | Incidence: number of mice suffering from pulmonary fibrosis (ICR strain mice) | Grade: total score of pulmonary fibrosis/total number of test animal (ICR strain mice) | Grade of pulmonary fibrosis, Ratio (ICR strain mice) | Incidence of pulmonary fibrosis, Ratio (ICR strain mice) |
| --- | --- | --- | --- | --- | --- | --- | --- | --- | --- | --- | --- | --- | --- |
| Cc1c(N)nc(C(CC(N)=O)NCC(N)C(N)=O)nc1C(=O)NC(C(=O)NC(C)C(O)C(C)C(=O)NC(C(=O)NCCc1nc(-c2nc(C(=O)NCCCN(C)CCCNCc3ccc([N+](=O)[O-])cc3)cs2)cs1)C(C)O)C(OC1OC(CO)C(O)C(O)C1OC1OC(CO)C(O)C(OC(N)=O)C1O)c1cnc[nH]1 (stereo not drawn) [MNBZ, 3-(N-methyl-N-3-p-nitro-benzylamino-propyl)aminopropylamino-bleomycin, reference compound] | 104% | 89% | 8/9 | 28/27 | – | – | – | – | – | – | – | – | – |
| Cc1c(N)nc(C(CC(N)=O)NCC(N)C(N)=O)nc1C(=O)NC(C(=O)NC(C)C(O)C(C)C(=O)NC(C(=O)NCCc1nc(-c2nc(C(=O)NCCCNC(C)c3ccccc3)cs2)cs1)C(C)O)C(OC1OC(CO)C(O)C(O)C1OC1OC(CO)C(O)C(OC(N)=O)C1O)c1c[nH]cn1 [PEP, 3-[(S)-1'-phenylethylamino]propylamino-bleomycin, reference compound] | 150% | 75% | 6/8 | 36/24 | – | – | – | – | – | – | – | – | – |
| Cc1c(N)nc(C(CC(N)=O)NCC(N)C(N)=O)nc1C(=O)NC(C(=O)NC(C)C(O)C(C)C(=O)NC(C(=O)NCCc1nc(-c2nc(C(=O)NCCCNCCCNC(C)c3ccccc3)cs2)cs1)C(C)O)C(OC1OC(CO)C(O)C(O)C1OC1OC(CO)C(O)C(OC(N)=O)C1O)c1cnc[nH]1 (stereo not drawn) [PEPP, 3-[3-(N-1-phenylethyl)aminopropyl]aminopropylamino-bleomycin, reference compound] | 56% | 89% | 8/9 | 15/27 | – | – | – | – | – | – | – | – | – |
| Cc1c(N)nc(C(CC(N)=O)NCC(N)C(N)=O)nc1C(=O)NC(C(=O)NC(C)C(O)C(C)C(=O)NC(C(=O)NCCc1nc(-c2nc(C(=O)NCCCN(C)CCCNCCc3ccc(Cl)cc3)cs2)cs1)C(C)O)C(OC1OC(CO)C(O)C(O)C1OC1OC(CO)C(O)C(OC(N)=O)C1O)c1cnc[nH]1 (stereo not drawn) [compound 1, 3-{N--Methyl-N--[3'-(2"-p-chlorophenylethylamino)propyl]amino}propylaminoBLM] | – | – | – | – | 16800 mcg potency per mg | 13266 mcg potency per mg | 0.54 µg/mL | 11% | 22% | 2/9 | 3/27 | 0.13 | 0.35 |
| Cc1c(N)nc(C(CC(N)=O)NCC(N)C(N)=O)nc1C(=O)NC(C(=O)NC(C)C(O)C(C)C(=O)NC(C(=O)NCCc1nc(-c2nc(C(=O)NCCCN(C)CCCNCc3ccc(C#N)cc3)cs2)cs1)C(C)O)C(OC1OC(CO)C(O)C(O)C1OC1OC(CO)C(O)C(OC(N)=O)C1O)c1cnc[nH]1 (stereo not drawn) [compound 18, 3-{N--Methyl-N--[3'-(p-cyanobenzylamino)propyl]amino}propylaminoBLM] | – | – | – | – | 3163 mcg potency per mg | 4347 mcg potency per mg | 1.10 µg/mL | 0% | 0% | 0/9 | 0/27 | 0.00 | 0.00 |
| Cc1c(N)nc(C(CC(N)=O)NCC(N)C(N)=O)nc1C(=O)NC(C(=O)NC(C)C(O)C(C)C(=O)NC(C(=O)NCCc1nc(-c2nc(C(=O)NCCCN(C)CCCNCC3CCCC3)cs2)cs1)C(C)O)C(OC1OC(CO)C(O)C(O)C1OC1OC(CO)C(O)C(OC(N)=O)C1O)c1cnc[nH]1 (stereo not drawn) [compound 28, 3-{N--Methyl-N--[3'-(cyclopentylmethylamino)propyl]amino}propylaminoBLM] | – | – | – | – | 13595 mcg potency per mg | 16180 mcg potency per mg | 1.00 µg/mL | – | – | – | – | – | – |
| Cc1c(N)nc(C(CC(N)=O)NCC(N)C(N)=O)nc1C(=O)NC(C(=O)NC(C)C(O)C(C)C(=O)NC(C(=O)NCCc1nc(-c2nc(C(=O)NCCCN(C)CCCNCC3CCCCC3)cs2)cs1)C(C)O)C(OC1OC(CO)C(O)C(O)C1OC1OC(CO)C(O)C(OC(N)=O)C1O)c1cnc[nH]1 (stereo not drawn) [compound 29, 3-{N--Methyl-N--[3'-(cyclohexylmethylamino)propyl]amino}propylaminoBLM] | – | – | – | – | 15414 mcg potency per mg | 12148 mcg potency per mg | 0.63 µg/mL | – | – | – | – | – | – |
| Cc1c(N)nc(C(CC(N)=O)NCC(N)C(N)=O)nc1C(=O)NC(C(=O)NC(C)C(O)C(C)C(=O)NC(C(=O)NCCc1nc(-c2nc(C(=O)NCCCN(C)CCCNCCC3CCCCC3)cs2)cs1)C(C)O)C(OC1OC(CO)C(O)C(O)C1OC1OC(CO)C(O)C(OC(N)=O)C1O)c1cnc[nH]1 (stereo not drawn) [compound 30, 3-{N--Methyl-N--[3'-(cyclohexylethylamino)propyl]amino}propylaminoBLM] | – | – | – | – | 35030 mcg potency per mg | 14440 mcg potency per mg | 0.56 µg/mL | – | – | – | – | – | – |
| Cc1c(N)nc(C(CC(N)=O)NCC(N)C(N)=O)nc1C(=O)NC(C(=O)NC(C)C(O)C(C)C(=O)NC(C(=O)NCCc1nc(-c2nc(C(=O)NCCCN(C)CCCNCC3CCCCCC3)cs2)cs1)C(C)O)C(OC1OC(CO)C(O)C(O)C1OC1OC(CO)C(O)C(OC(N)=O)C1O)c1cnc[nH]1 (stereo not drawn) [compound 31, 3-{N--Methyl-N--[3'-(cycloheptylmethylamino)propyl]amino}propylaminoBLM] | – | – | – | – | 25924 mcg potency per mg | 20143 mcg potency per mg | 0.48 µg/mL | – | – | – | – | – | – |
| Cc1c(N)nc(C(CC(N)=O)NCC(N)C(N)=O)nc1C(=O)NC(C(=O)NC(C)C(O)C(C)C(=O)NC(C(=O)NCCc1nc(-c2nc(C(=O)NCCCN3CCN(CCCNCc4ccc(Cl)cc4)CC3)cs2)cs1)C(C)O)C(OC1OC(CO)C(O)C(O)C1OC1OC(CO)C(O)C(OC(N)=O)C1O)c1cnc[nH]1 (stereo not drawn) [compound 44, 3-[4-(3-p-Chlorobenzylaminopropyl)piperazin-l-yl]propylaminoBLM] | – | – | – | – | 11350 mcg potency per mg | 6080 mcg potency per mg | 0.31 µg/mL | 0% | 0% | 0/9 | 0/27 | 0.00 | 0.00 |
| Cc1c(N)nc(C(CC(N)=O)NCC(N)C(N)=O)nc1C(=O)NC(C(=O)NC(C)C(O)C(C)C(=O)NC(C(=O)NCCc1nc(-c2nc(C(=O)NCCCN(C)CCCNCC3CCCCCCCCCCCC3)cs2)cs1)C(C)O)C(OC1OC(CO)C(O)C(O)C1OC1OC(CO)C(O)C(OC(N)=O)C1O)c1cnc[nH]1 (stereo not drawn) [compound 47, 3-{N--Methyl-N--[3'-(cyclotridecanylmethylamino)propyl]amino}propylaminoBLM] | – | – | – | – | 3915 mcg potency per mg | 1760 mcg potency per mg | 0.18 µg/mL | 0% | 0% | 0/9 | 0/27 | 0.00 | 0.00 |

Reference: US4568490A, “Aminopropylaminobleomycin derivatives and process for preparation thereof” (Zaidan Hojin Biseibutsu Kagaku Kenkyu Kai, priority 1981, dated 1986)
